Laboratory results from publication PMC9942557, “Bolaamphiphile Analogues of 12-bis-THA Cl2 Are Potent Antimicrobial Therapeutics with Distinct Mechanisms of Action against Bacterial, Mycobacterial, and Fungal Pathogens” (mSphere, 2022).
Like-named read-outs stand apart in the source and are kept apart here.

How the values were obtained:
[1] = system: VR Enterococcus faecalis NCTC 12201; test: Broth microdilution MIC; format: cell-based
Klebsiella pneumoniae M6 = test: Broth microdilution MIC; format: cell-based
P. aeruginosa PAO1 = test: Checkerboard synergy assay; format: cell-based, Pseudomonas aeruginosa; conditions: for MIC: Pseudomonas aeruginosa, read-out: MIC Alone Bolalipid
M. tuberculosis Bleupan = test: microbe, parasite or virus in culture; format: cell-based, Mycobacterium tuberculosis
[2] = system: pBR322 plasmid, wheat germ topoisomerase I; test: DNA unwinding assay; format: biochemical; conditions: for DNA intercalation: relaxed pBR322 plasmid plus topoisomerase I (Fig. 2A); for relaxation of supercoiled plasmid through the action of topoisomerase I: supercoiled pBR322 plasmid, bolalipid present (Fig. 2B)
Description: A DNA unwinding assay kit (Inspiralis Limited, Norwich, UK) consists of wheat germ topoisomerase I assay buffer (50 mM Tris HCl [pH 7.9], 1 mM EDTA, 1 mM dithiothreitol [DTT], 20% [vol/vol] glycerol, 50 mM NaCl) dilution buffer (50 mM Tris HCl [pH 7.9], 1 mM EDTA, 1 mM DTT, 50% [vol/vol] glycerol, 500 mM NaCl), wheat germ topoisomerase I (5 U/μL), supercoiled plasmid pBR322 (1 μg/μL), and relaxed plasmid pBR322 (1 μg/μL). For the experiments, 2× DNA loading buffer containing 40% (wt/vol) sucrose, 100 mM Tris-HCl (pH 8), 1 mM EDTA, and 0.5 mg/mL bromophenol blue was prepared. The enzyme was diluted 1/5 with dilution buffer before being used in the assay. For the assay, 3 mM stock solutions in methanol of the compounds to be tested were prepared. An appropriate number of 1.5-mL Eppendorf tubes were filled with 25 μL of a mix consisting of assay buffer (15 μL of buffer per sample), supercoiled or relaxed pBR322 (0.5 μg/assay), and ultrapure water. In the first two tubes, 1 μL of methanol was added to test the effect of the solvent on both the plasmid and the enzyme. Subsequently, 1 μL of the test compounds was added to the remaining tubes, and the tubes briefly vortexed and incubated at room temperature for 5 min. After that, 2 μL of dilution buffer was added in the first tube, whereas 2 μL of enzyme diluted solution was added to the remaining tubes. The tubes were gently vortexed and incubated for 30 min at 37°C in a water bath. After this time, the reaction was stopped by adding 20 μL of water and 50 μL of water-saturated butanol to each tube. The tubes were vortexed and centrifuged for 1 min at 14,800 rpm. The lower aqueous layer of each tube was removed and transferred to a new tube containing 30 μL of chloroform-isoamyl alcohol (24/1) and 50 μL of loading buffer. The tubes were briefly vortexed and centrifuged for 1 min. Twenty microliters of the upper layer of each tube was loaded onto a 1% (wt/vol) agarose gel, and the gel was run at 80 V for approximately 4 h in Tris-acetate-EDTA buffer (40 mM Tris acetate and 1 mM EDTA). Subsequently, the gel was stained with ethidium bromide (1 μg/mL) for 15 min, briefly destained (5 to 10 min) in water, and visualized with a Multi-Doc Imaging M-26X UVP transilluminator.

[3] = system: Pseudomonas aeruginosa PAO1; test: Broth microdilution MIC; format: cell-based
[4] = system: Acinetobacter baumannii ATCC 17978; test: Broth microdilution MIC; format: cell-based
C. albicans 3179 = test: Broth microdilution MIC; format: cell-based, Candida albicans; conditions: C. albicans 3179
[5] = system: Escherichia coli ATCC 25922; test: Intrahemocoelic G. mellonella infection model; format: in vivo, Galleria mellonella; conditions: single 10-mg/kg dose 1 h after infection
Description: The antimicrobial activities of DQC, CM2, and its analogues Quino-bola, Penta-bola, Hepta-bola, and Octa-bola against Escherichia coli ATCC 25922 were tested in Galleria mellonella larvae. All assays were performed on two separate occasions using a group size of 10 larvae; the larvae were kept in separate petri dishes and in a static incubator at 37°C during the period of the experiment. A suspension of E. coli ATCC 25922 was prepared by transferring two colonies of E. coli ATCC 25922 from a fresh agar plate into PBS and adjusting the absorbance to a McFarland 0.5 standard. The number of CFU per milliliter of this suspension was determined and corresponded to 1 × 10^8 CFU/mL. Larvae were injected beneath the tegument with 10 μL of a 1 × 10^7-CFU/mL bacteria suspension, corresponding to 1 × 10^5 CFU per larva. A 50-μL Hamilton syringe with a G27 needle was used for the injection. […] Ten microliters of stock solution was injected into each larva 1 h after infection (10 mg/kg). Levofloxacin (LVX; 50 μg/mL = 2 mg/kg) and PBS were used as positive and negative controls, respectively. A noninfected PBS injection was included to control for the effects of injection. Survival was monitored over a period of 70 to 72 h. Changes in G. mellonella survival were analyzed by the log rank (Mantel-Cox) method and plotted as Kaplan-Meier survival curves using GraphPad Prism version 7.

[6] = system: VS Enterococcus faecalis NCTC 775; test: Broth microdilution MIC; format: cell-based
C. auris temp probe = test: Broth microdilution MIC; format: cell-based, Candida auris; conditions: C. auris temp probe
[7] = system: Klebsiella pneumoniae NCTC 13368; test: Broth microdilution MIC; format: cell-based
Dynamic light scattering = format: physicochemical; conditions: 0.36 mM in water
Description: Stock solutions of bolalipids were prepared by dispersing the powder in ultrapure water, then stirring vigorously by vortexing, and sonicating in a 40°C bath sonicator for 20 min. The concentration of each stock solution corresponds to the highest solubility achieved in water for each bolalipid, using the method described above. DLS experiments were performed on a Malvern Zetasizer Nano (Malvern Instruments, Worcestershire, UK) in back-scattering mode at 20°C. There were three independent measurements of each sample and 12 runs for each measurement, with 10 s taken for each run. The attenuator index and measurement position were automatically adjusted. Fifty microliters of each sample was transferred into polystyrene semi-microcuvettes for determination of UV and visible wavelengths (Sarstedt).

M. smegmatis mc^2 155 = test: Broth microdilution MIC (Middlebrook 7H9); format: cell-based, Mycobacterium smegmatis
[8] = system: Gram-positive bacteria (avg); test: Selectivity index (toxicity/potency); format: cell-based; conditions: ratio of average toxicity (HEK293 and HeLa) to average potency
Fungi (avg) = test: Selectivity index (toxicity/potency); format: cell-based, Candida spp.; conditions: ratio of average toxicity (HEK293 and HeLa) to average potency
From the text: TABLE 3 Selectivity indices of bolaamphiphiles | column: Selectivity of^a: / 12-bis-THA Cl2; Selectivity of^a: / Dequalinium; Selectivity of^a: / Quino-bola; Selectivity of^a: / Penta-bola; Selectivity of^a: / Hepta-bola; Selectivity of^a: / Octa-bola; Selectivity of^a: / Octa-C10; Selectivity of^a: / Octa-C8; Selectivity of^a: / Octa-C6

[9] = VR Enterococcus faecalis NCTC 12201
[10] = NCTC12201, VR Enterococcus faecalis NCTC 12201, read-out: MIC
[11] = Mycobacterium tuberculosis, read-out: MIC
[12] = Candida albicans, read-out: MIC
[13] = Candidozyma auris, read-out: MIC
[14] = Mycolicibacterium smegmatis, MC^2155, read-out: MIC

## Nc1c2c([n+](CCCCCCCCCCCC[n+]3c4c(c(N)c5ccccc53)CCCC4)c3ccccc13)CCCC2 [12-bis-THA Cl2, 12,12′-(Dodecane-1,12-diyl)-bis-(9-amino-1,2,3,4-tetrahydroacridinium) chloride]
[1]; [9]
  MIC: 1 µg/mL
Klebsiella pneumoniae M6
  MIC: 16 µg/mL
P. aeruginosa PAO1
  MIC alone Bolalipid: 32 µg/mL
M. tuberculosis Bleupan
  MIC: 0.87 µg/mL
[2]
  DNA intercalation: intercalators
  relaxation of supercoiled plasmid through the action of topoisomerase I: not observed
[3]
  MIC: 32 µg/mL
[4]
  MIC: 16 µg/mL
C. albicans 3179
  MIC: 0.25 µg/mL
[5]
  protection (survival over 72 h): survival was somewhat better than that obtained in the absence of treatment
[6]
  MIC: 2 µg/mL
C. auris temp probe
  MIC: 2 µg/mL
[7]
  MIC: 32 µg/mL
Dynamic light scattering
  nanoparticle formation (DLS): to some extent
M. smegmatis mc^2 155
  MIC: 0.28 µg/mL

## Cc1cc(N)c2ccccc2[n+]1CCCCCCCCCC[n+]1c(C)cc(N)c2ccccc21 [Dequalinium, dequalinium chloride, reference compound]
[8]
  Selectivity index: 2.65
[1]; [10]
  MIC: 16 µg/mL
Klebsiella pneumoniae M6; read-out: MIC
  MIC: > 32 µg/mL
P. aeruginosa PAO1
  MIC: > 32 µg/mL
M. tuberculosis Bleupan; [11]
  MIC: 3.51 µg/mL
[2]
  DNA intercalation: intercalators
  relaxation of supercoiled plasmid through the action of topoisomerase I: not observed
[3]; read-out: MIC
  MIC: > 32 µg/mL
[4]; ATCC17978, read-out: MIC
  MIC: 32 µg/mL
C. albicans 3179; [12]
  MIC: 0.5 µg/mL
[5]
  protection (survival over 72 h): protective
[6]; NCTC775, read-out: MIC
  MIC: 32 µg/mL
C. auris temp probe; [13]
  MIC: 4 µg/mL
Fungi (avg)
  Selectivity index: 26.8
[7]; NCTC13368, read-out: MIC
  MIC: > 32 µg/mL
Dynamic light scattering
  nanoparticle formation (DLS): readily form nanoparticles
M. smegmatis mc^2 155; [14]
  MIC: 0.68 µg/mL

## Nc1c2c([n+](CCCCCCCCCCCC[n+]3c4c(c(N)c5ccccc53)CCCCCC4)c3ccccc13)CCCCCC2 [Octa-bola]
[8]
  Selectivity index: 17.4
[1]; [10]
  MIC: 1 µg/mL
Klebsiella pneumoniae M6; read-out: MIC
  MIC: 16 µg/mL
P. aeruginosa PAO1
  MIC: 32 µg/mL
M. tuberculosis Bleupan; [11]
  MIC: 0.24 µg/mL
[2]
  DNA intercalation: intercalation is reduced if not eliminated
  relaxation of supercoiled plasmid through the action of topoisomerase I: not observed
[3]; read-out: MIC
  MIC: 32 µg/mL
[4]; ATCC17978, read-out: MIC
  MIC: 8 µg/mL
C. albicans 3179; [12]
  MIC: 0.5 µg/mL
[5]
  protection (survival over 72 h): significantly protective
[6]; NCTC775, read-out: MIC
  MIC: 0.5 µg/mL
C. auris temp probe; [13]
  MIC: 1 µg/mL
Fungi (avg)
  Selectivity index: 8.30
[7]; NCTC13368, read-out: MIC
  MIC: 32 µg/mL
Dynamic light scattering
  nanoparticle formation (DLS): readily form nanoparticles
M. smegmatis mc^2 155; [14]
  MIC: 0.55 µg/mL

## Nc1c2c([n+](CCCCCCCCCCCC[n+]3c4c(c(N)c5ccccc53)CCC4)c3ccccc13)CCC2 [Penta-bola]
[1]; [9]
  MIC: 1 µg/mL
Klebsiella pneumoniae M6
  MIC: 32 µg/mL
P. aeruginosa PAO1
  MIC alone Bolalipid: 32 µg/mL
M. tuberculosis Bleupan
  MIC: 0.19 µg/mL
[2]
  DNA intercalation: intercalators
  relaxation of supercoiled plasmid through the action of topoisomerase I: not observed
[3]
  MIC: 32 µg/mL
[4]
  MIC: 16 µg/mL
C. albicans 3179
  MIC: 0.25 µg/mL
[5]
  protection (survival over 72 h): neither Quino-bola nor Penta-bola offered significant protection
[6]
  MIC: 4 µg/mL
C. auris temp probe
  MIC: 2 µg/mL
[7]
  MIC: 32 µg/mL
Dynamic light scattering
  nanoparticle formation (DLS): to some extent
M. smegmatis mc^2 155
  MIC: 0.10 µg/mL

## Cc1c(N)c2ccccc2[n+](CCCCCCCCCCCC[n+]2c(C)c(C)c(N)c3ccccc32)c1C [Quino-bola]
[8]
  Selectivity index: 8.94
[1]; Enterococcus faecalis, NCTC12201
  MIC: 2 µg/mL
Klebsiella pneumoniae M6; read-out: MIC
  MIC: 32 µg/mL
P. aeruginosa PAO1
  MIC: > 32 µg/mL
[2]
  DNA intercalation: intercalators
  relaxation of supercoiled plasmid through the action of topoisomerase I: not observed
[3]; read-out: MIC
  MIC: > 32 µg/mL
[4]; ATCC17978, read-out: MIC
  MIC: 16 µg/mL
C. albicans 3179; [12]
  MIC: 0.25 µg/mL
[5]
  protection (survival over 72 h): neither Quino-bola nor Penta-bola offered significant protection
[6]; NCTC775, read-out: MIC
  MIC: 4 µg/mL
C. auris temp probe; [13]
  MIC: 2 µg/mL
Fungi (avg)
  Selectivity index: 31.8
[7]
  MIC: 32 µg/mL
M. smegmatis mc^2 155; [14]
  MIC: 0.49 µg/mL
